Data as given in patent US6846659B2, “Isolation and bacterial expression of a sesquiterpene synthase cDNA clone from peppermint (Mentha x piperita, L.) that produces the aphid alarm pheromone (E)-β-farnesene” (Washington State University Research Foundation, priority 1997, dated 2005).

Legend:
[1] = target: T1, recombinant (E)-β-farnesene synthase (SEQ ID NO:2) (Mentha piperita, UniProt O48935); experiment: Kinetic characterization of recombinant, partially purified (E)-β-farnesene synthase (sesquiterpene/monoterpene/diterpene synthase assay); format: biochemical, peppermint (Mentha piperita)
T1 construct: made in house; host or cells: E. coli XL1-Blue harboring pBluescript clone p43
T1 sequence (O48935 1-550): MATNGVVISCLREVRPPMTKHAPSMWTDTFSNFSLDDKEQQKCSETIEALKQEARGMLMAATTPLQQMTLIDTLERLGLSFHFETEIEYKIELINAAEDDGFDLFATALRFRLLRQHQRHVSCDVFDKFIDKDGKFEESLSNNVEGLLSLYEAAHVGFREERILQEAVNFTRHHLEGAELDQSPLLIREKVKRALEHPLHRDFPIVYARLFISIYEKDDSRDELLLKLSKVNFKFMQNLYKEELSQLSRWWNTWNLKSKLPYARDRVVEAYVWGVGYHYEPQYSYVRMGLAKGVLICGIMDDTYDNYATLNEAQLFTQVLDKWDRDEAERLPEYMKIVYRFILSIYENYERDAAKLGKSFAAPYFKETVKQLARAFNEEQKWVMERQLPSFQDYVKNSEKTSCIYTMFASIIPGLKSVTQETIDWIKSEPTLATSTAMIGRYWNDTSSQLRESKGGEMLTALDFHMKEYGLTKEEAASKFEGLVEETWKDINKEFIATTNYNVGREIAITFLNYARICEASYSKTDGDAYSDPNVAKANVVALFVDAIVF
Protocol: (§1) Cell-Free Assays. […] The sonicate was centrifuged at 3700×g for 15 minutes, and an aliquot of the supernatant was then placed in a 10 ml screw-capped glass test tube containing divalent metal ions (10 mM MgCl2 and 1 mM MnCl2) and substrate (7.3 μM [1-^3H]FDP). The aqueous layer was overlaid with 1 ml pentane and the seated tube was incubated at 30° C. for two hours. The pentane overlay was then collected and the aqueous layer was extracted twice (1 ml) with pentane. The combined pentane extracts were passed through an anhydrous MgSO4-silica gel column to obtain the labeled hydrocarbon fraction for GC-MS analysis, or for radio-GC analysis using peppermint oil as an internal standard.
(§2) The chilled sonicate was cleared by centrifugation and the supernatant was assayed for sesquiterpene synthase activity as before, or for monoterpene synthase activity (with 4.5 μM [1-^3H]GDP) or diterpene synthase activity (with 10 μM [1-^3H]GGDP). In all cases, the pentane-soluble reaction products were purified by MgSO4-silica gel chromatography, as above, to prepare the olefin fraction for further analysis.
(§3) For determination of the pH optimum of (E)-β-farnesene synthase (SEQ ID NO:2), the preparation was adjusted with 50 mM Mopso (to a pH of 6.5, 6.75, 7.0, 7.25, 7.5, 8.0, or 8.5) before the assay. Kinetic constants for FDP, GDP, Mg^++ and Mn^++ were determined using a preparation of (E)-β-farnesene synthase (SEQ ID NO:2) that was partially purified by anion-exchange chromatography (on a Mono-Q column (Pharmacia) equilibrated with assay buffer and eluted with a linear KCl gradient (0 to 500 mM) in assay buffer). The 210-230 mM fraction containing the (E)-β-farnesene synthase (SEQ ID NO:2) was used for kinetic evaluation of FDP and GDP as substrates (concentration range 0.31 to 20 μM, with saturating Mg^++). […] Kinetic constants for Mg^++ and Mn^++ (assay range 1 μM to 2 mM of the chloride salts) were then determined at 7.3 μM [1-^3H]FDP. […]

aphids = details: dose of 100 ng/aphid; cited from earlier work
whiteflies = details: vapor; cited from earlier work
[2] = substrate: CC(C)=CCC/C(C)=C/CC/C(C)=C/CO[P@@](=O)(O)OP(=O)(O)O; experiment: Kinetic characterization of recombinant, partially purified (E)-β-farnesene synthase (sesquiterpene/monoterpene/diterpene synthase assay); format: biochemical, peppermint (Mentha piperita); details: other: substrate range 0.31 to 20 μM, saturating Mg++; double reciprocal plot
Protocol: as §1, §2, §3

Molecule: CC(C)=CCC/C(C)=C/COP(=O)(O)OP(=O)(O)O [GDP, geranyl diphosphate]
- Km ([1]; substrate range 0.31 to 20 μM, saturating Mg++, double reciprocal plot): 1500 nM

Molecule: C=CC(=C)CC/C=C(\C)CCC=C(C)C [(E)-β-farnesene]
- acute toxicity to aphids (aphids): acutely toxic
- toxicity to whiteflies (whiteflies): toxic

Molecule: CC(C)=CCC/C(C)=C/CC/C(C)=C/CC/C(C)=C/COP(=O)(O)OP(=O)(O)O [[1-^3H]GGDP, geranylgeranyl diphosphate]
- activity of the synthase with the substrate analog ([1]; C20 substrate analog, 10 μM): inactive

B1: recombinant (E)-β-farnesene synthase (SEQ ID NO:2) (Mentha x piperita) (protein)
chain: MATNGVVISCLREVRPPMTKHAPSMWTDTFSNFSLDDKEQQKCSETIEALKQEARGMLMAATTPLQQMTLIDTLERLGLSFHFETEIEYKIELINAAEDDGFDLFATALRFRLLRQHQRHVSCDVFDKFIDKDGKFEESLSNNVEGLLSLYEAAHVGFREERILQEAVNFTRHHLEGAELDQSPLLIREKVKRALEHPLHRDFPIVYARLFISIYEKDDSRDELLLKLSKVNFKFMQNLYKEELSQLSRWWNTWNLKSKLPYARDRVVEAYVWGVGYHYEPQYSYVRMGLAKGVLICGIMDDTYDNYATLNEAQLFTQVLDKWDRDEAERLPEYMKIVYRFILSIYENYERDAAKLGKSFAAPYFKETVKQLARAFNEEQKWVMERQLPSFQDYVKNSEKTSCIYTMFASIIPGLKSVTQETIDWIKSEPTLATSTAMIGRYWNDTSSQLRESKGGEMLTALDFHMKEYGLTKEEAASKFEGLVEETWKDINKEFIATTNYNVGREIAITFLNYARICEASYSKTDGDAYSDPNVAKANVVALFVDAIVF
notes: made in house; host or cells: E. coli XL1-Blue harboring pBluescript clone p43
- Km [2]: 0.6 µM
